Results as given in PubChem BioAssay (NCI).
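Cultured in 96-well plates, cells were exposed to test compound for 48 hours across five concentrations. At the GI50, growth is halved. TGI is the concentration that stops growth completely.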

Key:
Assay in all cases: NCI tumour cell line growth inhibition, 48 h
SK-OV-3 ovarian = system: SK-OV-3 ovarian
SK-MEL-28 melanoma = system: SK-MEL-28 melanoma
NCI-H226 lung = system: NCI-H226 lung
OVCAR-5 ovarian = system: OVCAR-5 ovarian
OVCAR-8 ovarian = system: OVCAR-8 ovarian
MCF7 breast = system: MCF7 breast
MDA-MB-435 = system: MDA-MB-435
M14 melanoma = system: M14 melanoma
COLO 205 colon = system: COLO 205 colon
OVCAR-4 ovarian = system: OVCAR-4 ovarian
HL-60(TB) leukemia = system: HL-60(TB) leukemia
DU-145 prostate = system: DU-145 prostate
BT-549 breast = system: BT-549 breast
SF-268 CNS = system: SF-268 CNS
SNB-75 CNS = system: SNB-75 CNS
SK-MEL-5 melanoma = system: SK-MEL-5 melanoma
NCI-H460 lung = system: NCI-H460 lung
UACC-62 melanoma = system: UACC-62 melanoma
A498 renal = system: A498 renal
HCT-15 colon = system: HCT-15 colon
TK-10 renal = system: TK-10 renal
SF-295 CNS = system: SF-295 CNS
UO-31 renal = system: UO-31 renal
HCT-116 colon = system: HCT-116 colon
OVCAR-3 ovarian = system: OVCAR-3 ovarian
HCC-2998 colon = system: HCC-2998 colon
NCI-H522 lung = system: NCI-H522 lung
MDA-MB-231 breast = system: MDA-MB-231 breast
SK-MEL-2 melanoma = system: SK-MEL-2 melanoma
CAKI-1 renal = system: CAKI-1 renal
IGROV1 ovarian = system: IGROV1 ovarian
ACHN renal = system: ACHN renal
PC-3 prostate = system: PC-3 prostate
SN12C renal = system: SN12C renal
HOP-92 NSCLC = system: HOP-92 NSCLC
RPMI-8226 leukemia = system: RPMI-8226 leukemia
UACC-257 melanoma = system: UACC-257 melanoma
K-562 leukemia = system: K-562 leukemia
A549 NSCLC = system: A549 NSCLC
NCI-H23 lung = system: NCI-H23 lung
MALME-3M melanoma = system: MALME-3M melanoma
CCRF-CEM leukemia = system: CCRF-CEM leukemia
HS 578T breast = system: HS 578T breast
KM12 colon = system: KM12 colon
RXF 393 renal = system: RXF 393 renal
SNB-19 CNS = system: SNB-19 CNS
MOLT-4 leukemia = system: MOLT-4 leukemia
SF-539 CNS = system: SF-539 CNS
LOX IMVI melanoma = system: LOX IMVI melanoma
SR leukemia = system: SR leukemia
HT29 colon = system: HT29 colon
786-0 renal = system: 786-0 renal
EKVX NSCLC = system: EKVX NSCLC
SW-620 colon = system: SW-620 colon
T-47D breast = system: T-47D breast
NCI/ADR-RES ovarian = system: NCI/ADR-RES ovarian
U251 CNS = system: U251 CNS
HOP-62 NSCLC = system: HOP-62 NSCLC

COc1cc2c3c(cc4c5c(ccc4c3c1OC)OCO5)N(CCN(C)C)C2=O
GI50 (SK-OV-3 ovarian): 74.6 nM | TGI (SK-OV-3 ovarian): 600 nM | GI50 (SK-MEL-28 melanoma): 182 nM | TGI (SK-MEL-28 melanoma): 676 nM | GI50 (NCI-H226 lung): 69.6 nM | TGI (NCI-H226 lung): 344 nM | GI50 (OVCAR-5 ovarian): 133 nM | TGI (OVCAR-5 ovarian): 907 nM | GI50 (OVCAR-8 ovarian): 59.6 nM | TGI (OVCAR-8 ovarian): 5980 nM | GI50 (MCF7 breast): 32.2 nM | TGI (MCF7 breast): 579 nM | GI50 (MDA-MB-435): 170 nM | TGI (MDA-MB-435): 615 nM | GI50 (M14 melanoma): 46.6 nM | TGI (M14 melanoma): 400 nM | GI50 (COLO 205 colon): 116 nM | TGI (COLO 205 colon): 935 nM | GI50 (OVCAR-4 ovarian): 309 nM | TGI (OVCAR-4 ovarian): 7840 nM | GI50 (HL-60(TB) leukemia): 22.6 nM | TGI (HL-60(TB) leukemia): 118 nM | GI50 (DU-145 prostate): 35.4 nM | TGI (DU-145 prostate): 490 nM | GI50 (BT-549 breast): 234 nM | TGI (BT-549 breast): 1530 nM | GI50 (SF-268 CNS): 104 nM | TGI (SF-268 CNS): 1040 nM | GI50 (SNB-75 CNS): 71.1 nM | TGI (SNB-75 CNS): 583 nM | GI50 (SK-MEL-5 melanoma): 92.4 nM | TGI (SK-MEL-5 melanoma): 225 nM | GI50 (NCI-H460 lung): 17.6 nM | TGI (NCI-H460 lung): 147 nM | GI50 (UACC-62 melanoma): 56.7 nM | TGI (UACC-62 melanoma): 229 nM | GI50 (A498 renal): 77.6 nM | TGI (A498 renal): 299 nM | GI50 (HCT-15 colon): 34 nM | TGI (HCT-15 colon): 605 nM | GI50 (TK-10 renal): 170 nM | TGI (TK-10 renal): 702 nM | GI50 (SF-295 CNS): 33.5 nM | TGI (SF-295 CNS): 229 nM | GI50 (UO-31 renal): 34.3 nM | TGI (UO-31 renal): 201 nM | GI50 (HCT-116 colon): 42.9 nM | TGI (HCT-116 colon): 422 nM | GI50 (OVCAR-3 ovarian): 199 nM | TGI (OVCAR-3 ovarian): 1140 nM | GI50 (HCC-2998 colon): 85.8 nM | TGI (HCC-2998 colon): 295 nM | GI50 (NCI-H522 lung): 101 nM | TGI (NCI-H522 lung): 599 nM | GI50 (MDA-MB-231 breast): 249 nM | TGI (MDA-MB-231 breast): 1610 nM | GI50 (SK-MEL-2 melanoma): 313 nM | TGI (SK-MEL-2 melanoma): 804 nM | GI50 (CAKI-1 renal): 39.3 nM | TGI (CAKI-1 renal): 261 nM | GI50 (IGROV1 ovarian): 47.2 nM | TGI (IGROV1 ovarian): 501 nM | GI50 (ACHN renal): 21.5 nM | TGI (ACHN renal): 81.2 nM | GI50 (PC-3 prostate): 157 nM | TGI (PC-3 prostate): 4440 nM | GI50 (SN12C renal): 31.8 nM | TGI (SN12C renal): 378 nM | GI50 (HOP-92 NSCLC): 60.9 nM | TGI (HOP-92 NSCLC): 561 nM | GI50 (RPMI-8226 leukemia): 43.7 nM | TGI (RPMI-8226 leukemia): 517 nM | GI50 (UACC-257 melanoma): 166 nM | TGI (UACC-257 melanoma): 596 nM | GI50 (K-562 leukemia): 50 nM | GI50 (A549 NSCLC): 13.3 nM | TGI (A549 NSCLC): 385 nM | GI50 (NCI-H23 lung): 53.8 nM | TGI (NCI-H23 lung): 339 nM | GI50 (MALME-3M melanoma): 64.2 nM | TGI (MALME-3M melanoma): 258 nM | GI50 (CCRF-CEM leukemia): 28.1 nM | TGI (CCRF-CEM leukemia): 9640 nM | GI50 (HS 578T breast): 190 nM | TGI (HS 578T breast): 1280 nM | GI50 (KM12 colon): 196 nM | TGI (KM12 colon): 11700 nM | GI50 (RXF 393 renal): 89.4 nM | TGI (RXF 393 renal): 264 nM | GI50 (SNB-19 CNS): 38.9 nM | TGI (SNB-19 CNS): 2610 nM | GI50 (MOLT-4 leukemia): 23.6 nM | TGI (MOLT-4 leukemia): 1410 nM | GI50 (SF-539 CNS): 110 nM | TGI (SF-539 CNS): 411 nM | TGI (LOX IMVI melanoma): 49.6 nM | GI50 (SR leukemia): 22.5 nM | GI50 (HT29 colon): 87.1 nM | TGI (HT29 colon): 1260 nM | GI50 (786-0 renal): 35 nM | TGI (786-0 renal): 654 nM | GI50 (EKVX NSCLC): 104 nM | TGI (EKVX NSCLC): 669 nM | GI50 (SW-620 colon): 36.3 nM | TGI (SW-620 colon): 1330 nM | GI50 (T-47D breast): 64.9 nM | TGI (T-47D breast): 3050 nM | GI50 (NCI/ADR-RES ovarian): 68.5 nM | TGI (NCI/ADR-RES ovarian): 675 nM | GI50 (U251 CNS): 38.9 nM | TGI (U251 CNS): 1430 nM | GI50 (HOP-62 NSCLC): 35.9 nM | TGI (HOP-62 NSCLC): 1620 nM
